Measurements reported in ChEMBL document CHEMBL1146807, “A new family of quinoline and quinoxaline analogues of combretastatins” (Bioorg Med Chem Lett, 2004).
Activity calls are given as the source filed them. No cut-off for these calls is given here.

Experiments:
[1] = test system: HCT-116; test: Cytotoxic activity against H116 cell line; type: functional, cell-based; conditions: Homo sapiens
[2] = test system: A549; test: Cytotoxic activity against A-549 cell line; type: functional, cell-based; conditions: Homo sapiens
[3] = test system: HT-29; test: Cytotoxic activity against HT-29 cell line; type: functional, cell-based; conditions: Homo sapiens
[4] = test system: SK-MEL-28; test: Cytotoxic activity against MEL-28 cell line; type: functional, cell-based; conditions: Homo sapiens
[5] = test system: P388; test: Cytotoxic activity against P-388 cell line; type: functional, cell-based; conditions: Mus musculus
[6] = Compound tested for inhibition of tubulin polymerization at 60 uM; No inhibition; type: functional
[7] = Compound tested for inhibition of tubulin polymerization; type: functional

Row | IC50 [7] [nM] | SMILES | IC50 [1] [nM] | IC50 [2] [nM] | IC50 [3] [nM] | IC50 [4] [nM] | IC50 [5] [nM] | inhibition [6]
1 |  | COc1ccc(/C=C\c2cc(OC)c(OC)c(OC)c2)cc1O [COMBRETASTATIN A4] | 3.16 |  |  |  |  | 
2 |  | COc1cc(/C=C/c2ccc3ccccc3n2)cc(OC)c1OC | 398 | 398 | 398 | 398 | 398 | 
3 |  | COc1cc(/C=C\c2ccc3ncccc3c2)cc(OC)c1OC | 31.6 | 31.6 | 31.6 | 31.6 | 31.6 | 
4 |  | COc1cc(/C=C/c2ccc3nccnc3c2)cc(OC)c1OC | > 15800 | > 15800 | > 15800 | > 15800 | > 15800 | 
5 |  | COc1cc(/C=C\c2ccc3ccccc3n2)cc(OC)c1OC | 316 | 316 | 316 | 316 | 316 | 
6 |  | COc1cc(/C=C\c2ccc3ccccc3c2)cc(OC)c1OC [NAPHTHYLCOMBRETASTATIN] | 15.8 |  |  |  |  | 
7 |  | COc1cc(/C=C\c2cnc3ccccc3c2)cc(OC)c1OC | 398 | 398 | 398 | 398 | 398 | 
8 |  | COc1cc(/C=C\c2ccc3nccnc3c2)cc(OC)c1OC | 7940 | 7940 | 7940 | 7940 | 7940 | inactive
9 |  | COc1cc(/C=C\c2ccnc3ccccc23)cc(OC)c1OC | 7940 | 7940 | 15800 | 7940 | 7940 | 
10 |  | COc1cc(/C=C/c2ccc3cccnc3c2)cc(OC)c1OC | 1580 | 1580 | 1580 | 1580 | 1580 | 
11 | 20000 | COc1cc(/C=C\c2ccc3cccnc3c2)cc(OC)c1OC | 158 | 158 | 158 | 158 | 158 | 
12 |  | COc1cc(/C=C/c2ccc3nc(C)c(C)nc3c2)cc(OC)c1OC | > 15800 | > 15800 | > 15800 | > 15800 | > 15800 | 
13 |  | COc1cc(/C=C/c2cnc3ccccc3c2)cc(OC)c1OC | > 3160 | > 3160 | > 3160 | > 3160 | > 3160 | 
14 |  | COc1cc(/C=C\c2ccc3nc(C)c(C)nc3c2)cc(OC)c1OC | > 15800 | > 15800 | > 15800 | > 15800 | > 15800 | inactive
